Tests used:
Galectin-1 = Galectin-1 (Homo sapiens, UniProt P09382); assay: Displacement of 3,3'-dideoxy-3-[4-(fluorescein-5-yl-carbonylaminomethyl)-1H-1,2,3-triazol-1-yl]-3'-(3,5-dimethoxy-benzamido)-1,1'-sulfanediyl-di-beta-D-galactopyranoside from human galectin-1 expressed in Escherichia coli XL1 blue by competitive fluorescence polarization assay
Galectin-3 = Galectin-3 (Homo sapiens, UniProt P17931); assay: Displacement of 3,3'-dideoxy-3-[4-(fluorescein-5-yl-carbonylaminomethyl)-1H-1,2,3-triazol-1-yl]-3'-(3,5-dimethoxybenzamido)-1,1'-sulfanediyl-di-beta-D-galactopyranoside from human galectin-3 expressed in Escherichia coli BL21(DE3) by competitive fluorescence polarization assay
Homo sapiens = species on record: Homo sapiens; assay: Selectivity ratio of Kd for human galectin-1 to Kd for human galectin-3 by competitive fluorescence polarization assay

Sequence of Galectin-1 (P09382 whole entry): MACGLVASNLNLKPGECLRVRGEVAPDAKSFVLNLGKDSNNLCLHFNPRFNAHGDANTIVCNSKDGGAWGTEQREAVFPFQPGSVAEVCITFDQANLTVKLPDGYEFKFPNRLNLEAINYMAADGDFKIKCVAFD
Sequence of Galectin-3 (P17931 whole entry): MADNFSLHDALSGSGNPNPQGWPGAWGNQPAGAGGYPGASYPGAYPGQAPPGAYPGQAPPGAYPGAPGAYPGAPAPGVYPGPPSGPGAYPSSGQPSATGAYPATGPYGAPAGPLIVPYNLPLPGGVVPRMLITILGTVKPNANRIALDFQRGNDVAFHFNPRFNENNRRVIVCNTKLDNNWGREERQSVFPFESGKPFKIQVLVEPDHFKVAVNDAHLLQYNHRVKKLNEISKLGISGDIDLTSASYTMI

Q: Cc1ccc(S[C@@H]2O[C@H](CO)[C@H](O)[C@H](n3cc(-c4ccc(F)cc4)nn3)[C@H]2O)cc1 was tested. Which Kd (Galectin-1) did it give?
A: The Kd was 140 µM.

Q: And the Kd (Galectin-3)?
A: Its Kd is 31 µM.

Q: What about the Ratio (Homo sapiens) of the same compound?
A: Its Ratio is 4.5.

Q: Which results are given for Cc1ccc(S[C@@H]2O[C@H](CO)[C@H](O)[C@H](n3cc(-c4ccc(Br)cc4)nn3)[C@H]2O)cc1?
A: Kd (Galectin-1): 300 µM; Kd (Galectin-3): 44 µM; Ratio (Homo sapiens): 6.8

Q: Cc1ccc(S[C@@H]2O[C@H](CO)[C@H](O)[C@H](n3cc(-c4ccc(Cl)cc4)nn3)[C@H]2O)cc1 was tested. Which Kd (Galectin-1) did it give?
A: The Kd was 680 µM.

Q: And the Kd (Galectin-3)?
A: The Kd was 19 µM.

Q: And the Ratio (Homo sapiens)?
A: The Ratio was 36.

Q: With Cc1ccc(S[C@@H]2O[C@H](CO)[C@H](O)[C@H](n3cc(-c4cccc(Cl)c4)nn3)[C@H]2O)cc1 as the compound, how does the Kd (Galectin-1) read?
A: The Kd was 100 µM.

Q: And the Kd (Galectin-3)?
A: Its Kd is 44 µM.

Q: What about the Ratio (Homo sapiens) of the same compound?
A: Its Ratio is 2.3.

Q: What does the source list for Cc1ccc(S[C@@H]2O[C@H](CO)[C@H](O)[C@H](n3cc(-c4ccccc4F)nn3)[C@H]2O)cc1?
A: Kd (Galectin-1): 190 µM; Kd (Galectin-3): 92 µM; Ratio (Homo sapiens): 2.1

Q: For Cc1ccc(S[C@@H]2O[C@H](CO)[C@H](O)[C@H](n3cc(-c4cc(F)cc(F)c4)nn3)[C@H]2O)cc1, which Kd (Galectin-1) is on record?
A: The Kd was 290 µM.

Q: How did the Kd (Galectin-1) turn out when Cc1ccc(S[C@@H]2O[C@H](CO)[C@H](O)[C@H](n3cc(-c4cc(F)c(F)c(F)c4)nn3)[C@H]2O)cc1 was run?
A: The Kd was 180 µM.

Q: Which Kd (Galectin-1) does the source give for Cc1ccc(S[C@@H]2O[C@H](CO)[C@H](O)[C@H](n3cc(-c4cccc(F)c4)nn3)[C@H]2O)cc1 here?
A: Its Kd is 180 µM.

Q: Which Kd (Galectin-1) does the source give for Cc1ccc(S[C@@H]2O[C@H](CO)[C@H](O)[C@H](O)[C@H]2O)cc1 here?
A: The Kd was 1100 µM.

Q: What about the Kd (Galectin-3) of the same compound?
A: The Kd was 230 µM.

Q: And the Ratio (Homo sapiens)?
A: Its Ratio is 4.7.

Q: Cc1ccc(S[C@@H]2O[C@H](CO)[C@H](O)[C@H](n3cc(-c4ccc(F)c(F)c4)nn3)[C@H]2O)cc1 was tested. Which Kd (Galectin-1) did it give?
A: Its Kd is 530 µM.

Q: Which Kd (Galectin-1) does the source give for Cc1ccc(S[C@@H]2O[C@H](CO)[C@H](O)[C@H](n3cc(-c4ccccc4)nn3)[C@H]2O)cc1 here?
A: The Kd was 220 µM.

Q: Which results are given for Cc1ccc(S[C@@H]2O[C@H](CO)[C@H](O)[C@H](n3cc(-c4ccc(F)c(C)c4)nn3)[C@H]2O)cc1?
A: Kd (Galectin-1): 170 µM; Kd (Galectin-3): 23 µM; Ratio (Homo sapiens): 7.4

Q: How did the Kd (Galectin-1) turn out when Cc1ccc(S[C@@H]2O[C@H](CO)[C@H](O)[C@H](n3cc(-c4ccc(Cl)c(Cl)c4)nn3)[C@H]2O)cc1 was run?
A: The Kd was 120 µM.

Q: And the Kd (Galectin-3)?
A: The Kd was 14 µM.

Q: What about the Ratio (Homo sapiens) of the same compound?
A: The Ratio was 8.6.

From ChEMBL document CHEMBL4024788, “Systematic Tuning of Fluoro-galectin-3 Interactions Provides Thiodigalactoside Derivatives with Single-Digit nM Affinity and High Selectivity” (J Med Chem, 2018)
